# Measured values taken from patent US20200199501A1, “SOLVENT COMPOSITIONS CONTAINING 1,2,2-TRIFLUORO-1-TRIFLUOROMETHYLCYCLOBUTANE (TFMCB)” (Honeywell International Inc., priority 2018, published 2020).
# Experiment: Acute inhalation toxicity (OECD Guideline No. 403)
# Details: in vivo, inhaled, OECD Guideline No. 403 (2009), Method B.2 of Commission Regulation (EC) No. 440/2008
# From the text: LC50 is a measure of the acute toxicity of a compound. The acute inhalation toxicity of a compound can be assessed using the method described in the OECD Guideline for Testing of Chemicals No. 403 “Acute Inhalation Toxicity” (2009), Method B.2. (Inhalation) of Commission Regulation (EC) No. 440/2008.
structure (smiles),measurement,value
"FC(F)(F)C1(F)CCC1(F)F (stereo not shown) [TFMCB, 1,2,2-trifluoro-1-trifluoromethylcyclobutane]",LC50,> 19.1 µg/mL
